Drawing on paper PMC6334005, “Ginsenosides Act As Positive Modulators of P2X4 Receptors” (Molecular Pharmacology, 2019), this text covers EC50 for 4 compounds.

Assay [1] deals with T1, hP2X4 (Homo sapiens, UniProt Q99571).
T1 sequence (Q99571 1-388): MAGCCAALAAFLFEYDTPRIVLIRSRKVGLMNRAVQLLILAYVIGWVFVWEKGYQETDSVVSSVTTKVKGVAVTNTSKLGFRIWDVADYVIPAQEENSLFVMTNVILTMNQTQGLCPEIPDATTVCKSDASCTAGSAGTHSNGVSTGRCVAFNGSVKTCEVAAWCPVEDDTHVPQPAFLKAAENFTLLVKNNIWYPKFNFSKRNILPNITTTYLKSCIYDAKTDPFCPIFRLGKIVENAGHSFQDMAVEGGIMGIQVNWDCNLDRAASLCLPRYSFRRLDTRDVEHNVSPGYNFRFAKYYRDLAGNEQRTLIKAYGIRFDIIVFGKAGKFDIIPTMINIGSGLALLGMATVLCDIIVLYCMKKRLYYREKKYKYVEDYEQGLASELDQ
The assay can be described thus: YOPRO-1 dye uptake, potentiation of ATP response. It is filed as cell-based. Also on record: gene P2RX4; full-length, C-terminal Glu-Glu tag, pcDNA3, stably expressed in HEK-293 cells; homotrimer.

For assay [2], the target named is T1, hP2X4. Put plainly: cell-based. More on the design: gene P2RX4.

Molecules are shown by their SMILES.

What is called EC50 is the midpoint of the concentration-response curve.

With `CC(C)=CCC[C@](C)(O[C@@H]1O[C@H](CO[C@@H]2O[C@H](CO)[C@@H](O)[C@H](O)[C@H]2O)[C@@H](O)[C@H](O)[C@H]1O)[C@H]1CC[C@]2(C)[C@@H]1[C@H](O)C[C@@H]1[C@@]3(C)CC[C@H](O[C@@H]4O[C@H](CO)[C@@H](O)[C@H](O)[C@H]4O[C@@H]4O[C@H](CO)[C@@H](O)[C@H](O)[C@H]4O)C(C)(C)[C@@H]3CC[C@]12C` [Rb1], on hP2X4 [1], the EC50 turned out to be 10.5 µM.

`Nc1ncnc2c1ncn2[C@@H]1O[C@H](COP(=O)(O)OP(=O)(O)OP(=O)(O)O)[C@@H](O)[C@H]1O` [ATP]: a half-maximal effect at hP2X4 [2] (EC50) was put at 1.92 µM.

With `CC(C)=CCC[C@](C)(O[C@@H]1O[C@H](CO)[C@@H](O)[C@H](O)[C@H]1O)[C@H]1CC[C@]2(C)[C@@H]1[C@H](O)C[C@@H]1[C@@]3(C)CC[C@H](O)C(C)(C)[C@@H]3CC[C@]12C` [CK], the EC50 at hP2X4 [1] was found to be 8.5 µM.

Consider `CC(C)=CCC[C@](C)(O[C@@H]1O[C@H](CO)[C@@H](O)[C@H](O)[C@H]1O)[C@H]1CC[C@]2(C)[C@@H]1[C@H](O)C[C@@H]1[C@@]3(C)CC[C@H](O[C@@H]4O[C@H](CO)[C@@H](O)[C@H](O)[C@H]4O[C@@H]4O[C@H](CO)[C@@H](O)[C@H](O)[C@H]4O)C(C)(C)[C@@H]3CC[C@]12C` [Rd], for which the EC50 at hP2X4 [1] is 7.5 µM.
